Test results as given in patent publication US20230295152A1 (SENDA BIOSCIENCES, INC., priority 2019, published 2023).
Converted amounts (≈) assume the structure as drawn. Where two headings read alike, the source gives them in different places.

What was measured:
[1] = Solubility Determination Assay in PBS pH 1.6 and pH 7.4; format: physicochemical; settings: PBS buffer, aqueous buffer, kinetic from dmso stock
Experimental: The stock solutions of test compounds and control compound progesterone were prepared in DMSO at the concentrations of 10 mM. 15 μL of stock solution (10 mM) of each sample was placed in order into their proper 96-well rack. 485 μL of PBS pH 1.6 and pH 7.4 were added into each vial of the cap-less Solubility Sample plate. The assay was performed in singlet. One stir stick was added to each vial and then the vial was sealed using a molded PTFE/Silicone plug. […] After completion of the 2 hours, plugs were removed and the stir sticks were removed using a big magnet. The samples from the Solubility Sample plate were transferred into the filter plate. Using the Vacuum Manifold, all the samples were filtered. An aliquot of 5 μL was taken from the filtrate followed by addition of 495 μL of a mixture of H2O and acetonitrile containing internal standard (1:1). A certain proportion of ultrapure water was used to dilute the diluent according to the peak shape. The dilution factor was changed according to the solubility values and the LC-MS signal response.
From the 10 mM DMSO STD plate, 6 μL was transferred into the remaining empty plate, and then 194 μL of DMSO were added to that plate to have a STD concentration of 300 μM. From the 300 μM DMSO STD plate, 5 μL were transferred into the remaining empty plate, and then 495 μL of a mixture of H2O and acetonitrile containing internal standard (1:1) were added to that plate to have a final STD concentration of 3 μM. A certain proportion of ultrapure water was used to dilute the diluent according to the peak shape. The concentrations of the standard samples were changed according to the LC-MS signal response.
The plate was placed into the well plate autosampler. The samples were evaluated by LC-MS/MS analysis.
All calculations were carried out using Microsoft Excel.
The filtrate was analyzed and quantified against a standard of known concentration using LC coupled with mass spectral peak identification and quantitation. Solubility values of the test compound and control compound were calculated as follows: […]
Any value of the compounds that was not within the specified limits was rejected and the experiment was repeated.
“+++” indicates a solubility value equal to or greater than 1 μM, “++” indicates a solubility value between 0.1 and 1 μM, and “+” indicates a solubility value less than 0.1 μM.

[2] = Hepatocyte Stability Assay, human; format: in vitro ADME; settings: for CLint scaled at 1 μM: cryopreserved hepatocytes in suspension, human hepatocytes, read-out: Human hepatocyte clearance; for Human hepatocyte intrinsic clearance, suspension Hheps ClInt (% Qh): suspension human hepatocytes
Experimental: • Preparation of working solutions: 10 mM stock solutions of test compound and positive control were prepared in DMSO. In separate conical tubes, the 10 mM solution of test compound and the positive control were diluted to 100 μM by combining 198 μL of 50% acetonitrile/50% water and 2 μL of 10 mM stock.
Preparation of Hepatocytes: Incubation medium (William's E Medium supplemented with GlutaMAX) and hepatocyte thawing medium were placed in a 37° C. water bath and allowed warming for at least 15 minutes prior to use. A vial of cryopreserved hepatocytes was transferred from storage, ensuring that vials remained at cryogenic temperatures until thawing process ensued. Cells were thawed by placing the vial in a 37° C. water bath and gently shaking the vials for 2 minutes. After thawing was completed, vial was sprayed with 70% ethanol and transferred to a biosafety cabinet. Wide-bore pipette tip were used to transfer hepatocytes into 50 mL conical tube containing thawing medium. The 50 mL conical tube were placed into a centrifuge and spun at 100 g for 10 minutes. Upon completion of spin, thawing medium was aspirated and resuspended hepatocytes in enough incubation medium to yield ˜1.5×10^6 cells/mL. Using an AO/PI Staining, cells were counted and the viable cell density was determined. Cells with poor viability (<75% viability) were determined to be not acceptable for use. Cells were diluted with incubation medium to a working cell density of 0.5×10^6 viable cells/mL.
Procedure for Stability Determination: 198 μL of hepatocytes were pipetted into each wells of a 96-well non-coated plate. The plate was placed in the incubator to allow the hepatocytes to warm for 10 minutes. 2 μL of the 100 μM test compound or positive control solutions were pipetted into respective wells of the 96-well non-coated plate to start the reaction. The plate was returned to the incubator for the designed time points. Well contents was transferred in 25 μL aliquots at time points of 0, 15, 30, 60, 90 and 120 minutes. The aliquots were then mixed with 6 volumes (150 μL) of acetonitrile containing internal standard, IS (100 nM alprazolam, 200 nM caffeine and 100 nM tolbutamide) to terminate the reaction. The mixture was vortex for 5 minutes. Samples were centrifuged for 45 minutes at 3,220 g. An aliquot of 100 μL of the supernatant was diluted by 100 μL ultra-pure water, and the mixture was used for LC/MS/MS analysis. All incubations were performed in duplicate.
Data Analysis: All calculations were carried out using Microsoft Excel. Peak areas were determined from extracted ion chromatograms. In vitro half-life (t1/2) of parent compound was determined by regression analysis of the percent parent disappearance vs. time curve.
The in vitro half-life (in vitro t1/2) was determined from the slope value:
Conversion of the in vitro t1/2 (in min) into the in vitro intrinsic clearance (in vitro CLint, in μL/min/1×10^6 cells) was done using the following equation (mean of duplicate determinations):
V=incubation volume(0.2 mL);
N=number of hepatocytes per well(0.1×10^6 cells).
“+++” indicates a CLint value less than 20 mL/min/Kg, “++” indicates a CLint between 20 and 50 mL/min/Kg, and “+” indicates an CLint above 50 mL/min/Kg.

[3] = PBS pH 1.6, 25° C., read-out: Aq. Solubility at pH = 1.6
[4] = PBS pH 7.4, 25° C., read-out: Aq. Solubility at pH = 7.4

Compound | solubility at 2 h [1, 3] [µM] | solubility at 2 h [1, 4] [µM] | CLint scaled at 1 μM [2] [L/h/kg] | Human hepatocyte intrinsic clearance, suspension Hheps ClInt (% Qh) [2] [% Qh]
O=c1c2cc(-c3ccc(Cl)cc3)nc(-c3cccnc3)c2ncn1C[C@@H](O)C(F)(F)F (single isomer, unassigned) [185 enantiomer 1] | ≥ 1 | 0.1 to 1 (≈ 0.0447 to 0.447 µg/mL) | < 1.2 | –
O=c1c2cc(-c3ccc(Cl)cc3)nc(-c3cccnc3)c2ncn1C[C@H](O)C(F)(F)F (single isomer, unassigned) [185 enantiomer 2] | ≥ 1 | 0.1 to 1 (≈ 0.0447 to 0.447 µg/mL) | < 1.2 | –
O=c1c2cc(-c3ccc(Cl)cc3)nc(-c3cccnc3)c2ncn1[C@@H]1COC[C@@H]1O (stereo in doubt) [Compound 71] | ≥ 1 | ≥ 1 | < 1.2 | –
C[C@@H](CO)n1cnc2c(-c3cncc(F)c3)nc(-c3ccc(OC(F)(F)F)cc3)cc2c1=O [Compound 1, (S)-8-(5-fluoropyridin-3-yl)-3-(1-hydroxypropan-2-yl)-6-(4-(trifluoromethoxy)phenyl)pyrido[3,4-d]pyrimidin-4(3H)-one] | – | 0.1 to 1 (≈ 0.046 to 0.46 µg/mL) | < 1.2 | –
C[C@@H](CO)n1cnc2c(-c3cccc(F)c3)nc(-c3ccc(Cl)cc3)cc2c1=O [Compound 7] | 0.1 to 1 (≈ 0.041 to 0.41 µg/mL) | < 0.1 | 1.2 to 3 | –
C[C@@H](CO)n1cnc2c(-c3cccc(F)c3)nc(-c3ccc(C(F)(F)F)nc3)cc2c1=O [Compound 8] | – | ≥ 1 | < 1.2 | –
CC(C)(O)Cn1cnc2c(-c3cccnc3)nc(-c3ccc(C(F)(F)F)nc3)cc2c1=O [Compound 9] | ≥ 1 | ≥ 1 | < 1.2 | <31
C[C@@H](CO)n1cnc2c(-c3cccnc3)nc(-c3ccc(C(F)(F)F)nc3)cc2c1=O [Compound 12] | ≥ 1 | ≥ 1 | < 1.2 | –
CC(C)(O)Cn1cnc2c(-c3cccnc3)nc(-c3ccc(C(F)(F)F)cc3)cc2c1=O [Compound 16] | ≥ 1 | ≥ 1 | < 1.2 | –
Cc1ccc(-c2cc3c(=O)n([C@@H](C)CO)cnc3c(-c3cccnc3)n2)cc1 [Compound 17, (S)-3-(1-hydroxypropan-2-yl)-8-(pyridin-3-yl)-6-(p-tolyl)pyrido[3,4-d]pyrimidin-4(3H)-one] | ≥ 1 | ≥ 1 | 1.2 to 3 | –
CC(C)(O)Cn1cnc2c(-c3cccnc3)nc(-c3ccc(Cl)cc3)cc2c1=O [Compound 18] | ≥ 1 | ≥ 1 | < 1.2 | –
Cn1cc(-c2nc(-c3ccc(Cl)cc3)cc3c(=O)n(CC(C)(C)O)cnc23)cn1 [Compound 21] | ≥ 1 | ≥ 1 | < 1.2 | –
C[C@@H](CO)n1cnc2c(-c3cccnc3)nc(-c3ccc(OC(F)(F)F)cc3)cc2c1=O [Compound 22] | ≥ 1 | ≥ 1 | < 1.2 | –
C[C@@H](CO)n1cnc2c(-c3cccnc3)nc(-c3ccc(C(F)(F)F)cc3)cc2c1=O [Compound 23] | ≥ 1 | ≥ 1 | < 1.2 | –
C[C@@H](CO)n1cnc2c(-c3cnn(C)c3)nc(-c3ccc(OC(F)(F)F)cc3)cc2c1=O [Compound 25] | 0.1 to 1 (≈ 0.0445 to 0.445 µg/mL) | < 0.1 | < 1.2 | –
C[C@@H](CO)n1cnc2c(-c3cnn(C)c3)nc(-c3ccc(Cl)cc3)cc2c1=O [Compound 27] | 0.1 to 1 (≈ 0.0396 to 0.396 µg/mL) | 0.1 to 1 (≈ 0.0396 to 0.396 µg/mL) | < 1.2 | –
C[C@H](n1cnc2c(-c3cnn(C)c3)nc(-c3ccc(Cl)cc3)cc2c1=O)C(C)(C)O [Compound 30] | – | 0.1 to 1 (≈ 0.0424 to 0.424 µg/mL) | < 1.2 | –
C[C@@H](n1cnc2c(-c3cnn(C)c3)nc(-c3ccc(Cl)cc3)cc2c1=O)C(C)(C)O [Compound 31] | – | 0.1 to 1 (≈ 0.0424 to 0.424 µg/mL) | < 1.2 | –
C[C@@H](n1cnc2c(-c3cccnc3)nc(-c3ccc(Cl)cc3)cc2c1=O)C(C)(C)O [Compound 33] | – | < 0.1 | < 1.2 | –
C[C@H](n1cnc2c(-c3cccnc3)nc(-c3cccnc3)cc2c1=O)C(C)(C)O [Compound 34] | ≥ 1 | ≥ 1 | < 1.2 | –
C[C@@H](CO)n1cnc2c(-n3ccnc3)nc(-c3ccc(OC(F)(F)F)cc3)cc2c1=O [Compound 44, (S)-3-(1-hydroxypropan-2-yl)-8-(1H-imidazol-1-yl)-6-(4-(trifluoromethoxy)-phenyl)pyrido[3,4-d]pyrimidin-4(3H)-one] | – | 0.1 to 1 (≈ 0.0431 to 0.431 µg/mL) | < 1.2 | –
C[C@@H](CO)n1cnc2c(-c3cccnc3)nc(-c3ccc(C(F)(F)F)cn3)cc2c1=O [Compound 46, (S)-3-(1-hydroxypropan-2-yl)-8-(pyridin-3-yl)-6-(5-(trifluoromethyl)pyridin-2-yl)pyrido[3,4-d]pyrimidin-4(3H)-one] | ≥ 1 | ≥ 1 | < 1.2 | <31
C[C@@H](CO)n1cnc2c(-c3cccc(F)c3)nc(-c3ccc(C(F)(F)F)cn3)cc2c1=O [Compound 47, (S)-8-(3-fluorophenyl)-3-(1-hydroxypropan-2-yl)-6-(5-(trifluoromethyl)pyridin-2-yl)pyrido[3,4-d]pyrimidin-4(3H)-one] | – | 0.1 to 1 (≈ 0.0444 to 0.444 µg/mL) | < 1.2 | –
C[C@@H](CO)n1cnc2c(-c3cccnc3)nc(-c3ccc(OC(F)(F)F)nc3)cc2c1=O [Compound 50] | ≥ 1 | ≥ 1 | 1.2 to 3 | –
CC(C)(O)Cn1cnc2c(-c3cn[nH]c3)nc(-c3ccc(C(F)(F)F)nc3)cc2c1=O [Compound 51] | 0.1 to 1 (≈ 0.043 to 0.43 µg/mL) | 0.1 to 1 (≈ 0.043 to 0.43 µg/mL) | < 1.2 | –
CC(C)(O)Cn1cnc2c(-c3cnsc3)nc(-c3ccc(C(F)(F)F)nc3)cc2c1=O [Compound 54] | ≥ 1 | ≥ 1 | < 1.2 | –
C[C@@H](CO)n1cnc2c(-c3cnsc3)nc(-c3ccc(C(F)(F)F)nc3)cc2c1=O [Compound 55] | ≥ 1 | ≥ 1 | 1.2 to 3 | –
O=c1c2cc(-c3ccc(C(F)(F)F)nc3)nc(-c3cccnc3)c2ncn1C[C@H](O)C(F)(F)F [Compound 57] | ≥ 1 | ≥ 1 | < 1.2 | –
